Assay results published in patent US11000033B2, “Ketone or oxime compound, and herbicide” (NISSAN CHEMICAL CORPORATION, priority 2014, dated 2021).

Tests used:
Type in all cases: in vivo
Abutilon theophrasti = experiment: Test Example 4: herbicidal effect by soil treatment (symbol M); settings: application herbicide amount 320 g/ha
In short: (§1)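 Seeds were sown in sterilized diluvial soil, covered with about 1.5 cm of soil, and the soil surface was sprayed with a water-diluted emulsion of the compound at a predetermined rate. Plants grew in a greenhouse at 25° C. to 30° C.; effects were scored visually 3 weeks after application.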

Veronica persica = experiment: Test Example 5: herbicidal effect by foliage application, plastic box (symbol R); settings: 320 g/ha, 3 weeks after application
In short: (§2)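 Leaf-applied emulsion, water-diluted to a preset herbicide dose, on two-week-old seedlings raised in a 25° C. to 30° C. greenhouse; injury rated at 3 weeks using earlier criteria.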

rapeseed = experiment: Test Example 4: effect on crop by soil treatment (symbol g); settings: application herbicide amount 320 g/ha
In short: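 Soil-treatment setup: crop and weed seeds were spot-sown into sterilized diluvial soil, then buried beneath approximately 1.5 cm of it, and the boxes were housed in a 25–30° C. greenhouse.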

[1] = tested on: Echinochloa crus-galli var. crus-galli; experiment: Test Example 4: herbicidal effect by soil treatment (symbol H); settings: application herbicide amount 320 g/ha
In short: as §1

Digitaria ciliaris [2] = experiment: Test Example 5: herbicidal effect by foliage application, plastic box (symbol F); settings: 320 g/ha, 3 weeks after application
In short: as §2

beet = experiment: Test Example 5: effect on crop by foliage application, plastic box (symbol f); settings: 320 g/ha, 3 weeks after application
In short: (§3)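 Box culture: sterile diluvial soil, seeds spot-sown, ~1.5 cm cover, raised under glass at 25–30° C.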

Apera spica-venti = experiment: Test Example 4: herbicidal effect by soil treatment (symbol L); settings: application herbicide amount 320 g/ha
In short: as §1

Digitaria ciliaris [3] = experiment: Test Example 4: herbicidal effect by soil treatment (symbol F); settings: application herbicide amount 320 g/ha
In short: as §1

Avena fatua = experiment: Test Example 5: herbicidal effect by foliage application, plastic box (symbol I); settings: 320 g/ha, 3 weeks after application
In short: as §2

Leptochloa chinensis = experiment: Test Example 3: herbicidal effect by foliage application, Wagner pot (symbol D); settings: application herbicide amount 320 g/ha
In short: (§4)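 Post-emergence, paddy-type test: seedlings 14 d old in shallow-flooded (0.1–0.5 cm) alluvial soil, 25–30 °C greenhouse. Emulsion diluted to target rate, sprayed on leaves. Read-out: visual effect on each species at 3 weeks, per set criteria.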

Amaranthus retroflexus [4] = experiment: Test Example 4: herbicidal effect by soil treatment (symbol N); settings: application herbicide amount 320 g/ha
In short: as §1

Scirpus juncoides = experiment: Test Example 2: herbicidal activity, application during weed generation in submerged conditions (symbol B); settings: Table 23; application herbicide amount 320 g/ha; grade 0-5 by criteria of Test Example 1
In short: (§5)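 Steps: fill pots with alluvial soil; add water to 4 cm depth; co-sow the three weeds; grow at 25° C. to 30° C. under glass; at 1–2 leaves, dose the floodwater with diluted emulsion; rate damage visually after 3 weeks.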

Amaranthus retroflexus [5] = experiment: Test Example 5: herbicidal effect by foliage application, plastic box (symbol N); settings: 320 g/ha, 3 weeks after application
In short: as §2

Lolium multiflorum Lam. = experiment: Test Example 4: herbicidal effect by soil treatment (symbol K); settings: application herbicide amount 320 g/ha
In short: as §1

rice plant = experiment: Test Example 5: effect on crop by foliage application, plastic box (symbol b); settings: 320 g/ha, 3 weeks after application
In short: as §3

[6] = tested on: Echinochloa crus-galli var. crus-galli; experiment: Test Example 3: herbicidal effect by foliage application, Wagner pot (symbol H); settings: application herbicide amount 320 g/ha
In short: as §4

wheat = experiment: Test Example 5: effect on crop by foliage application, plastic box (symbol e); settings: 320 g/ha, 3 weeks after application
In short: as §3

[7] = tested on: Echinochloa oryzacola Vasing.; experiment: Test Example 2: herbicidal activity, application during weed generation in submerged conditions (symbol A); settings: Table 23; application herbicide amount 320 g/ha; grade 0-5 by criteria of Test Example 1
In short: as §5

Chenopodium album = experiment: Test Example 5: herbicidal effect by foliage application, plastic box (symbol O); settings: 320 g/ha, 3 weeks after application
In short: as §2

Stellaria media = experiment: Test Example 5: herbicidal effect by foliage application, plastic box (symbol P); settings: 320 g/ha, 3 weeks after application
In short: as §2

| SMILES | M: Abutilon theophrasti, herbicidal effect grade (Abutilon theophrasti) | R: Veronica persica, herbicidal effect grade (Veronica persica) | g: rapeseed, effect on crop grade (rapeseed) | H: Echinochloa crus-galli var. crus-galli, herbicidal effect grade [1] | F: Digitaria ciliaris, herbicidal effect grade (Digitaria ciliaris [2]) | f: beet, effect on crop grade (beet) | L: Apera spica-venti, herbicidal effect grade (Apera spica-venti) | F: Digitaria ciliaris, herbicidal effect grade (Digitaria ciliaris [3]) | I: Avena fatua, herbicidal effect grade (Avena fatua) | herbicidal effect on D (Leptochloa chinensis), grade 0-5 (Leptochloa chinensis) | N: Amaranthus retroflexus, herbicidal effect grade (Amaranthus retroflexus [4]) | Herbicidal effect grade, B: Scirpus juncoides (Scirpus juncoides) | N: Amaranthus retroflexus, herbicidal effect grade (Amaranthus retroflexus [5]) | K: Lolium multiflorum Lam., herbicidal effect grade (Lolium multiflorum Lam.) | b: directly sowed rice plant, effect on crop grade (rice plant) | herbicidal effect on H (Echinochloa crus-galli var. crus-galli), grade 0-5 [6] | e: wheat, effect on crop grade (wheat) | Herbicidal effect grade, A: Echinochloa oryzacola Vasing. [7] | O: Chenopodium album, herbicidal effect grade (Chenopodium album) | P: Stellaria media, herbicidal effect grade (Stellaria media) |
| --- | --- | --- | --- | --- | --- | --- | --- | --- | --- | --- | --- | --- | --- | --- | --- | --- | --- | --- | --- | --- |
| CC(=O)CC1CC(OC(=O)C(C)(C)C)=C(c2c(C)cc(C)cc2C)C1=O (stereo not drawn) [2-018] | 4 (Herbicidal ratio of 70% or higher and lower than 90%) | 0 (Herbicidal ratio of 5% or lower (almost no effect)) | 3 (Herbicidal ratio of 40% or higher and lower than 70%) | 5 (Herbicidal ratio of 90% or more (almost completely withered)) | 1 (Herbicidal ratio of 5% or higher and lower than 20%) | 0 (Herbicidal ratio of 5% or lower (almost no effect)) | 2 (Herbicidal ratio of 20% or higher and lower than 40%) | 5 (Herbicidal ratio of 90% or more (almost completely withered)) | 0 (Herbicidal ratio of 5% or lower (almost no effect)) | 5 (Herbicidal ratio of 90% or more (almost completely withered)) | 3 (Herbicidal ratio of 40% or higher and lower than 70%) | 0 (Herbicidal ratio of 5% or lower (almost no effect)) | 0 (Herbicidal ratio of 5% or lower (almost no effect)) | 5 (Herbicidal ratio of 90% or more (almost completely withered)) | 2 (Herbicidal ratio of 20% or higher and lower than 40%) | 5 (Herbicidal ratio of 90% or more (almost completely withered)) | 0 (Herbicidal ratio of 5% or lower (almost no effect)) | 4 (Herbicidal ratio of 70% or higher and lower than 90%) | – | – |
| CCOC(=O)C(C(=O)CC1CC1)C1CC(O)=C(c2c(C)cc(C)cc2C)C1=O (stereo not drawn) [2-025] | 0 (Herbicidal ratio of 5% or lower (almost no effect)) | 0 (Herbicidal ratio of 5% or lower (almost no effect)) | 0 (Herbicidal ratio of 5% or lower (almost no effect)) | 4 (Herbicidal ratio of 70% or higher and lower than 90%) | 4 (Herbicidal ratio of 70% or higher and lower than 90%) | 0 (Herbicidal ratio of 5% or lower (almost no effect)) | 0 (Herbicidal ratio of 5% or lower (almost no effect)) | 4 (Herbicidal ratio of 70% or higher and lower than 90%) | 0 (Herbicidal ratio of 5% or lower (almost no effect)) | 1 (Herbicidal ratio of 5% or higher and lower than 20%) | 0 (Herbicidal ratio of 5% or lower (almost no effect)) | – | 0 (Herbicidal ratio of 5% or lower (almost no effect)) | 4 (Herbicidal ratio of 70% or higher and lower than 90%) | 4 (Herbicidal ratio of 70% or higher and lower than 90%) | 3 (Herbicidal ratio of 40% or higher and lower than 70%) | 0 (Herbicidal ratio of 5% or lower (almost no effect)) | – | 0 (Herbicidal ratio of 5% or lower (almost no effect)) | 0 (Herbicidal ratio of 5% or lower (almost no effect)) |
| CCC(=O)CCC1CC(O)=C(c2c(C)cc(C)cc2C)C1=O (stereo not drawn) [5-001] | 0 (Herbicidal ratio of 5% or lower (almost no effect)) | 0 (Herbicidal ratio of 5% or lower (almost no effect)) | 0 (Herbicidal ratio of 5% or lower (almost no effect)) | 1 (Herbicidal ratio of 5% or higher and lower than 20%) | 4 (Herbicidal ratio of 70% or higher and lower than 90%) | – | 5 (Herbicidal ratio of 90% or more (almost completely withered)) | 4 (Herbicidal ratio of 70% or higher and lower than 90%) | 4 (Herbicidal ratio of 70% or higher and lower than 90%) | 3 (Herbicidal ratio of 40% or higher and lower than 70%) | 0 (Herbicidal ratio of 5% or lower (almost no effect)) | 0 (Herbicidal ratio of 5% or lower (almost no effect)) | 0 (Herbicidal ratio of 5% or lower (almost no effect)) | 5 (Herbicidal ratio of 90% or more (almost completely withered)) | 4 (Herbicidal ratio of 70% or higher and lower than 90%) | 2 (Herbicidal ratio of 20% or higher and lower than 40%) | 0 (Herbicidal ratio of 5% or lower (almost no effect)) | 0 (Herbicidal ratio of 5% or lower (almost no effect)) | – | 0 (Herbicidal ratio of 5% or lower (almost no effect)) |
| CON=C(C)CC1CC(O)=C(c2c(C)cc(C(C)=O)cc2C)C1=O (stereo not drawn) [6-026] | 0 (Herbicidal ratio of 5% or lower (almost no effect)) | 1 (Herbicidal ratio of 5% or higher and lower than 20%) | 0 (Herbicidal ratio of 5% or lower (almost no effect)) | 1 (Herbicidal ratio of 5% or higher and lower than 20%) | 5 (Herbicidal ratio of 90% or more (almost completely withered)) | 0 (Herbicidal ratio of 5% or lower (almost no effect)) | 0 (Herbicidal ratio of 5% or lower (almost no effect)) | 4 (Herbicidal ratio of 70% or higher and lower than 90%) | 5 (Herbicidal ratio of 90% or more (almost completely withered)) | 5 (Herbicidal ratio of 90% or more (almost completely withered)) | 2 (Herbicidal ratio of 20% or higher and lower than 40%) | – | 0 (Herbicidal ratio of 5% or lower (almost no effect)) | 1 (Herbicidal ratio of 5% or higher and lower than 20%) | 5 (Herbicidal ratio of 90% or more (almost completely withered)) | 5 (Herbicidal ratio of 90% or more (almost completely withered)) | 3 (Herbicidal ratio of 40% or higher and lower than 70%) | – | 0 (Herbicidal ratio of 5% or lower (almost no effect)) | 0 (Herbicidal ratio of 5% or lower (almost no effect)) |
